The assay has as its target T1, cloned human glucagon receptor (Homo sapiens, UniProt P47871).
T1 construct: expressed in transfected cells; plasma membrane preparation
Nature of the assay: Glucagon Binding Assay (II). To be noted: for inhibition at 1 µM: screened at 1 μM, library compounds, read-out: displacement of the glucagon tracer when screened at 1 μM concentration in the glucagon binding assay II. Here is the method: Binding of compounds to the glucagon receptor was determined in a competition binding assay using the cloned human glucagon receptor.
The receptor inserted in the pLJ6′ expression vector using EcoRI/SSt1 restriction sites (Lok et al.) was expressed in a baby hamster kidney cell line (A3 BHK 570-25).
The homogenate was resuspended and centrifuged again. The final precipitate containing the plasma membranes was suspended in buffer and stored at −80° C. until use.
Binding assays were carried out in duplicate in polypropylene tubes or microtiter plates. The buffer used in this assay was 50 mM HEPES pH 7.4 containing 5 mM EGTA, 5 mM MgCl2 and 0.005% Tween 20. Sample (glucagon (Bachem CA) or test compounds) was added to each tube or well. Tracer (˜25.000 cpm) was diluted in buffer and was added to each tube or well. 0.5 mg freshly thawed plasma membrane protein diluted in buffer was then added in aliquots to each tube or well. Tubes or plates were incubated at 37° C. for 1 hour. Non-specific binding was determined with 10^−7 M of glucagon. Bound tracer and unbound tracer were then separated by vacuum filtration. The tubes or wells were washed twice with 0.01% Triton X-100 buffer. Scintillation fluid was added to the plates and radioactivity was quantified using a scintillation counter.

Setting [1] is: plasma membranes of BHK cells expressing the receptor, read-out: Glu Bd Assay (II) IC50.

Read-outs that look alike come from different tables or passages of the source.

T1 sequence (P47871 26-477): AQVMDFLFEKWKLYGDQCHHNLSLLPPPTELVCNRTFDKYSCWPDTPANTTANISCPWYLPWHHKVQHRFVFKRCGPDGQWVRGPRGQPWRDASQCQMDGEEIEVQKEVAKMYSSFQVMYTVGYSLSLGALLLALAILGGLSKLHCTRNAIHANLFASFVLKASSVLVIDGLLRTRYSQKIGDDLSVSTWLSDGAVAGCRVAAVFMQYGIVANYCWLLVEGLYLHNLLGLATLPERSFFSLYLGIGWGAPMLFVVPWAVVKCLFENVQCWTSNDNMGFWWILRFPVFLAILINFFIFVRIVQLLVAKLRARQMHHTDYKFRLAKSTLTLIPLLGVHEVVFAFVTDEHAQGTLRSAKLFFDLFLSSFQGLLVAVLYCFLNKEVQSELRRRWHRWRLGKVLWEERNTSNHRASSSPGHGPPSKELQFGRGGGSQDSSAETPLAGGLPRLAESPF

By IC50 is commonly meant the concentration that gives 50% inhibition. For the compound `CC(C)(C)C1CCC(N(Cc2ccc(C(=O)NCCC(=O)O)cc2)C(=O)CNC(=O)OCC2c3ccccc3-c3ccccc32)CC1` (stereo not drawn), under setting [1], the IC50 stood at 687 nM.
As to `CC1CCC(N(Cc2ccc(C(=O)NCCC(=O)O)cc2)C(=O)Nc2ccc(-c3ccccc3)cc2)CC1` (stereo not drawn), the IC50 under setting [1] stood at 516 nM.
Turning to `COC(=O)CCNC(=O)c1ccc(CN(C(=O)Nc2cc(C(F)(F)F)cc(C(F)(F)F)c2)C2CCC(C(C)(C)C)CC2)cc1` (stereo not drawn), the IC50 under setting [1] worked out at 101 nM.
For the compound `CC(C)CC1CCC(N(Cc2ccc(C(=O)NCCC(=O)O)cc2)C(=O)Nc2ccc(OC(F)(F)F)cc2)CC1` (stereo not drawn), the IC50 came to 140 nM.
Consider `CCCCOC(=O)c1ccc(NC(=O)N(Cc2ccc(C(=O)NCCC(=O)O)cc2)C2CCCCCC2)cc1`, for which, under setting [1], the IC50 was 217 nM.
On to `CCCCOC(=O)c1ccc(NC(=O)N(Cc2ccc(C(=O)NCCC(=O)O)cc2)CC2CCCCC2)cc1`, for which, under setting [1], the IC50 came out at 264 nM.
On to `CCCCOC(=O)c1ccc(NC(=O)N(Cc2ccc(C(=O)NCCC(=O)O)cc2)C2CCC(C)CC2)cc1` (stereo not drawn), for which the IC50 under setting [1] came out at 188 nM.
In the case of `CCCCOC(=O)c1ccc(NC(=O)N(CCC(C)C)Cc2ccc(C(=O)NCCC(=O)O)cc2)cc1`, under setting [1], the IC50 was 254 nM.
With `CCCCOC(=O)c1ccc(NC(=O)N(Cc2ccc(C(=O)NCCC(=O)O)cc2)CC(C)(C)C)cc1`, the IC50 under setting [1] turned out to be 230 nM.
With `CCCCOC(=O)c1ccc(NC(=O)N(Cc2ccc(C(=O)NCCC(=O)O)cc2)C2CCCC(C)C2)cc1` (stereo not drawn), under setting [1], the IC50 amounted to 278 nM.
Consider `O=C(O)CCNC(=O)c1ccc(CN(CCc2ccc(Cl)cc2)C(=O)Nc2ccc(OCc3ccccc3)cc2)cc1`, for which the IC50 under setting [1] was 400 nM.
On the same count and under the same terms, as for `CC(C)(C)C1CCC(N(Cc2ccc(C(=O)NCCC(=O)O)cc2)C(=O)Nc2cc(C(F)(F)F)cc(C(F)(F)F)c2)CC1` (stereo not drawn), the figure is 10 nM.
Take `O=C(Nc1nn[nH]n1)c1ccc(CN(C(=O)Nc2cccc(I)c2)c2ccc(C3=CCCCC3)cc2)cc1`: the IC50 under setting [1] amounted to 26 nM.
For the compound `CC(C)(C)C1CCC(N(Cc2ccc(CNc3nn[nH]n3)cc2)C(=O)Nc2ccc(OC(F)(F)F)cc2)CC1` (mixture of isomers) [Example 579, 1-(4-tert-Butylcyclohexyl)-1-{4-[(2H-tetrazol-5-ylamino)methyl]benzyl}-3-(4-trifluoromethoxyphenyl)urea], under setting [1], the half-inhibitory concentration (IC50) is 242 nM.
With `O=C(O)CCNC(=O)c1ccc(CN(C(=O)Nc2ccc(OC(F)(F)F)cc2)C2C[C@H]2c2ccccc2)cc1` (stereo in doubt) [Example 187, 3-{4-[1-(2-Phenylcyclopropyl)-3-(4-trifluoromethoxyphenyl)ureidomethyl]benzoylamino}propionic acid], the inhibition at 1 µM is > 50%.
Consider `O=C(O)CCNC(=O)c1ccc(CN(C(=O)Nc2ccc(Cl)c(C(F)(F)F)c2)C2C[C@H]2c2ccccc2)cc1` (stereo in doubt) [Example 188, 3-{4-[3-(4-Chloro-3-trifluoromethylphenyl)-1-(2-phenylcyclopropyl)ureidomethyl]benzoylamino}propionic acid], for which the inhibition at 1 µM was > 50%.
Consider `O=C(O)CCNC(=O)c1ccc(CN(C(=O)Nc2ccc(Cl)c(C(F)(F)F)c2)[C@@H](CO)CC2CCCCC2)cc1` (stereo in doubt) [Example 189, 3-{4-[3-(4-Chloro-3-trifluoromethylphenyl)-1-(2-cyclohexyl-1-hydroxymethylethyl)ureidomethyl]benzoylamino}propionic acid], for which the inhibition at 1 µM is > 50%.
`O=C(O)CCCOc1ccc(CN(C(=O)Nc2ccc(OC(F)(F)F)cc2)C2C[C@H]2c2ccccc2)cc1` (stereo in doubt) [Example 222, 4-{4-[1-(2-Phenylcyclopropyl)-3-(4-trifluoromethoxyphenyl)ureidomethyl]phenoxy}butyric acid]: the inhibition at 1 µM was > 50%.
Turning to `O=C(O)CCCOc1ccc(CN(C(=O)Nc2ccc(Cl)c(C(F)(F)F)c2)C2C[C@H]2c2ccccc2)cc1` (stereo in doubt) [Example 223, 4-{4-[3-(4-Chloro-3-trifluoromethylphenyl)-1-(2-phenylcyclopropyl)ureidomethyl]phenoxy}butyric acid], the inhibition at 1 µM is > 50%.
`CC(C)(C)C1CCC(N(Cc2ccc(C(=O)NCCC(=O)O)cc2)C(=O)Nc2ccc(SC(F)(F)F)cc2)CC1` (stereo not drawn) [Example 101, 3-{4-[1-(4-tert-Butylcyclohexyl)-3-(4-trifluoromethylsulfanylphenyl)ureidomethyl]benzoylamino)propionic acid]: the IC50 under setting [1] was 119 nM.
For `CC(C)(C)C1CCC(N(Cc2ccc(C(=O)NCCC(=O)O)cc2)C(=O)Nc2ccc3ccccc3c2)CC1` (stereo not drawn) [Example 102, 3-{4-[1-(4-tert-Butylcyclohexyl)-3-naphthalen-2-ylureidomethyl]benzoylamino)propionic acid], the half-maximal inhibitory concentration (IC50) under setting [1] was found to be 167 nM.
As for `CC(C)(C)C1CCC(N(Cc2ccc(C(=O)NCCC(=O)O)cc2)C(=O)Nc2cc(Cl)nc(Cl)c2)CC1` (stereo not drawn) [Example 103, 3-{4-[1-(4-tert-Butylcyclohexyl)-3-(2,6-dichloropyridin-4-yl)ureidomethyl]benzoylamino)propionic acid], the 50% inhibitory concentration (IC50) under setting [1] turned out to be 150 nM.
With `CC(C)(C)C1CCC(N(Cc2ccc(C(=O)NCCC(=O)O)cc2)C(=O)Nc2cc(Cl)cc(Cl)c2)CC1` (stereo not drawn) [Example 104, 3-{4-[1-(4-tert-Butylcyclohexyl)-3-(3,5-dichlorophenyl)ureidomethyl]benzoylamino)propionic acid], the IC50 under setting [1] was determined as 50 nM.
As for `CC(C)(C)C1CCC(N(Cc2ccc(S(=O)(=O)NCCC(=O)O)cc2)C(=O)Nc2ccc(SC(F)(F)F)cc2)CC1` (stereo not drawn) [Example 105, 3-{4-[1-(4-tert-Butylcyclohexyl)-3-(4-trifluoromethylsulfanylphenyl)ureidomethyl]benzenesulfonylamino)propionic acid], the IC50 under setting [1] amounted to 446 nM.
Regarding `CC(C)(C)C1CCC(N(Cc2ccc(S(=O)(=O)NCCC(=O)O)cc2)C(=O)Nc2ccc(OC(F)(F)F)cc2)CC1` (stereo not drawn) [Example 106, 3-{4-[1-(4-tert-Butylcyclohexyl)-3-(4-trifluoromethoxyphenyl)ureidomethyl]benzenesulfonylamino)propionic acid], the IC50 under setting [1] is 468 nM.
As to `Cc1ccc(NC(=O)N(Cc2ccc(S(=O)(=O)NCCC(=O)O)cc2)C2CCC(C(C)(C)C)CC2)cc1F` (stereo not drawn) [Example 107, 3-{4-[1-(4-tert-Butylcyclohexyl)-3-(3-fluoro-4-methylphenyl)ureidomethyl]benzenesulfonylamino)propionic acid], the IC50 under setting [1] was 1200 nM.
On to `CC(C)(C)c1ccc(CN(Cc2ccc(C(=O)NCCC(=O)O)cc2)C(=O)Nc2cc(Cl)cc(Cl)c2)cc1` [Example 108, 3-{4-[1-(4-tert-Butylbenzyl)-3-(3,5-dichlorophenyl)ureidomethyl]benzoylamino)propionic acid], for which, under setting [1], the IC50 came out at 669 nM.
As for `C[C@H](C1CCCCC1)N(Cc1ccc(C(=O)NCCC(=O)O)cc1)C(=O)Nc1ccc2ccccc2c1` [Example 109, 3-{4-[1-((1R)-1-Cyclohexylethyl)-3-naphthalene-2-ylureidomethyl]benzoylamino)propionic acid], the IC50 under setting [1] came out at 916 nM.
As to `C[C@@H](C1CCCCC1)N(Cc1ccc(C(=O)NCCC(=O)O)cc1)C(=O)Nc1ccc2ccccc2c1` [Example 110, 3-{4-[1-((1S)-1-Cyclohexylethyl)-3-naphthalene-2-ylureidomethyl]benzoylamino)propionic acid], the IC50 under setting [1] came to 694 nM.
With `CCCCc1ccc(NC(=O)N(Cc2ccc(C(=O)NCCC(=O)O)cc2)C2Cc3ccccc3C2)cc1` [Example 112, 3-{4-[1-(2,3-Dihydro-1H-inden-2-yl)-3-(4-butylphenyl)ureidomethyl]benzoylamino)propionic acid], under setting [1], the IC50 worked out at 220 nM.
In the case of `CC(C)(C)C1CCC(N(Cc2ccc(C(=O)NCCC(=O)O)s2)C(=O)Nc2ccc(OC(F)(F)F)cc2)CC1` (stereo not drawn) [Example 113, 3-{5-[1-(4-tert-Butylcyclohexyl)-3-(4-trifluoromethoxyphenyl)ureidomethyl]thiophene-2-carbonylamino)propionic acid], the IC50 under setting [1] was 254 nM.
Turning to `CC1C(N(Cc2ccc(C(=O)NCCC(=O)O)cc2)C(=O)Nc2cc(Cl)cc(Cl)c2)CC2CC1C2(C)C` (stereo not drawn) [Example 114], the IC50 under setting [1] was determined as 575 nM.
As to `O=C(O)CCNC(=O)c1ccc(CN(Cc2ccccc2OC(F)(F)F)C(=O)Nc2ccc3ccccc3c2)cc1` [Example 115, 3-{4-[1-(2-Trifluoromethoxybenzyl)-3-naphthalene-2-ylureidomethyl]benzoylamino)propionic acid], the inhibition at 1 µM was > 50%.
`CCCCc1ccc(NC(=O)N(Cc2ccc(C(=O)NCCC(=O)O)cc2)Cc2ccccc2OC(F)(F)F)cc1` [Example 116, 3-{4-[1-(2-Trifluoromethoxybenzyl)-3-(4-butylphenyl)ureidomethyl]benzoylamino)propionic acid]: the inhibition at 1 µM was > 50%.
Take `O=C(O)CCNC(=O)c1ccc(CN(Cc2ccccc2OC(F)(F)F)C(=O)Nc2ccc(SC(F)(F)F)cc2)cc1` [Example 117, 3-{4-[1-(2-Trifluoromethoxybenzyl)-3-(4-trifluoromethylsulfanylphenyl)ureidomethyl]benzoylamino)propionic acid]: the inhibition at 1 µM was > 50%.
Regarding `CCCCc1ccc(NC(=O)N(Cc2ccc(C(=O)NCCC(=O)O)cc2)Cc2ccc(C(F)(F)F)cc2)cc1` [Example 118, 3-{4-[1-(4-Trifluoromethylbenzyl)-3-(4-butylphenyl)ureidomethyl]benzoylamino)propionic acid], the inhibition at 1 µM was > 50%.
